Here are results for five compounds from patent publication US7745450B2, “Pyrazolo[4,3-d]pyrimidines, processes for their preparation and methods for therapy” (Institute of Experimental Botany, priority 2002, dated 2010).

Holding throughout (format): cell-based, human
Test [1] relates to adult bone marrow CD34+CD38− cells. The test can be described thus: Pre-CFU assay. The conditions noted are these: for IC50: 14-day liquid culture, secondary methylcellulose culture. An excerpt: Adult Bone Marrow Cells (ABM): Bone marrow samples were obtained by sternal puncture from hematologically normal donors undergoing cardiac surgery, after obtaining informed consent according to the ethical regulations of the University of Antwerp. Cells were collected in IMDM supplemented with 10% FCS and 100 U/ml heparin and separated by density gradient as mentioned for PBMC. After washing, cells were resuspended in IMDM 10% FCS and were sorted on a FACStar (Becton Dickinson, Erembodegem, Belgium).
Cell sorting: ABM cells (10^7 cells/ml) were incubated with 43A1 hybridoma supernatant at a 1/10 dilution for 20 minutes at 4° C. The supernatant of the 43A1 hybridoma (immunoglobulin IgG3) was kindly donated by Dr. H. J. Bühring (University of Tübingen, Germany) and was used as a source of anti-CD34 antibodies. After washing twice in IMDM, the cells were incubated with FITC-conjugated rabbit anti-mouse IgG (1/40 dilution) for 20 min at 4° C. After washing twice cells were incubated for 10 minutes with 5 μg mouse Ig and for 15 minutes with anti-CD38-PE (20 μl/10^6 cells). After washing twice in IMDM, the cells were sorted on a FACStarPlus cell sorter equipped with an water-cooled argon ion laser (INNOVA Enterprise Ion Laser) with multiple wave length outputs including UV (488 nm). Cells with low-to-medium forward and low side scatter, highly positive green (CD34) fluorescence, and an orange (CD38) fluorescence signal lower than the mean fluorescence of cells labeled with an irrelevant isotype-matched control antibody were retained as CD34^+CD38^− cells; cells with an orange fluorescence above this threshold were retained as CD34^+CD38^+ cells.
Pre-CFU: Pre-CFU assays were initiated by performing liquid cultures of CD34^+CD38^− in duplicate in 96-well flat-bottomed plates in IMDM/10% FCS, 1% bovine serum albumin (BSA), and different combinations of the following cytokines: 100 U/ml IL-1, 200 U/ml IL-6, 30 U/ml IL-3 and 100 ng/ml stel cell factor (SCF). Pre-CFU cultures were initiated with 500 CD34^+CD38^− cells/well (200 μl). After 14 days of culture at 37° C. in 7.5% O2 and 5% CO2 in a fully humidified incubator, the number of cells in each well was counted. Following this the cells were harvested, washed three times in IMDM/10% FCS, and plated in duplicate at 500 cells/well (1000 μl) in secondary methylcellulose CFU cultures as described for CFU assays.
Pre-CFU were cultured starting from adult bone marrow CD34^+CD38^− cells, that had been isolated using the FCM cell sorter. Novel compounds were added at different concentrations to the primary 14-day liquid culture. IC50 was calculated from dose-response curves from total clonogenic output after secondary methylcellulose culture (Tab. 8).

Test [2] concerns CD34+CD38+ hematopoietic progenitors from adult bone marrow. Nature of the test: Myeloid colony-forming unit (CFU) assay. The conditions noted are these: for IC50: 14 days; for Colony output for CFU-E, CFU-G and CFU-M (output of the different types of myeloid colonies): scored differentially. An excerpt:
Adult Bone Marrow Cells (ABM): Bone marrow samples were obtained by sternal puncture from hematologically normal donors undergoing cardiac surgery, after obtaining informed consent according to the ethical regulations of the University of Antwerp. Cells were collected in IMDM supplemented with 10% FCS and 100 U/ml heparin and separated by density gradient as mentioned for PBMC. After washing, cells were resuspended in IMDM 10% FCS and were sorted on a FACStar (Becton Dickinson, Erembodegem, Belgium). Cell sorting: ABM cells (10^7 cells/ml) were incubated with 43A1 hybridoma supernatant at a 1/10 dilution for 20 minutes at 4° C. The supernatant of the 43A1 hybridoma (immunoglobulin IgG3) was kindly donated by Dr. […] (University of Tübingen, Germany) and was used as a source of anti-CD34 antibodies. After washing twice in IMDM, the cells were incubated with FITC-conjugated rabbit anti-mouse IgG (1/40 dilution) for 20 min at 4° C. […] After washing twice in IMDM, the cells were sorted on a FACStarPlus cell sorter equipped with an water-cooled argon ion laser (INNOVA Enterprise Ion Laser) with multiple wave length outputs including UV (488 nm). Cells with low-to-medium forward and low side scatter, highly positive green (CD34) fluorescence, and an orange (CD38) fluorescence signal lower than the mean fluorescence of cells labeled with an irrelevant isotype-matched control antibody were retained as CD34^+CD38^- cells; cells with an orange fluorescence above this threshold were retained as CD34^+CD38^+ cells. Myeloid Colony-forming unit (CFU) assays: Direct myeloid colony formation of CD34^+CD38^+ cells was assessed in a CFU assay. These assays were initiated with 500 cells per well and plated in duplicate in methylcellulose (0.9%) supplemented with 20% FCS, 1% bovine serum albumin (BSA), 10^-5 M mercaptoethanol and 10 vol. % 5637 conditioned medium of the 5637 bladder carcinoma cell line (containing G-CSF and GM-CSF), 2 U/ml erythropoietin and 30 U/ml interleukine-3 (IL-3). […] The following colony types were scored: myeloid colonies: macrophage (CFU-M), granulocyte (CFU-G), and granulocyte-macrophage (CFU-GM); erythroid colonies (BFU-E (burst-forming units, erythroid) and CFU-E); and mixed erythroid-myeloid colonies (CFU-Mix). CD34^+CD38^+ hematopoietic progenitors (HPC) from adult bone marrow were isolated and investigated for response to novel compounds. CD34^+CD38^+ cells were grown in a methylcellulose system in the presence of increasing concentrations of compounds.

The next test has as its system KG1. Nature of the test: Clonogenic output of KG1 in methylcellulose. As to conditions: 25 μM. The method, then: Cell lines: Human leukemic cell lines were obtained from the American Type Culture Collection (ATCC, Rockville, Md., USA). They were cultured in Iscove's Modified Dulbecco's Medium (IMDM) supplemented with 10% heat inactivated fetal calf serum (FCS), 200 U/ml penicillin, 200 μg/ml streptomycin and 1 μg/ml amphotericin B. Cells were cultured in a 5% CO2-95% air fully humidified incubator. For effects on clonogenic output, 1000 cells/well were plated in duplicate in methylcellulose (0.9%), supplemented with 20% FCS for 14 days.
Clonogenic output of KG1 was tested in methylcellulose with 25 μM of some of the novel compounds. Colony output vs. control cultures without novel compound, was 16% for 26, 19% for […] and 0% for 201.

Where [3] appears, read: total colony output, read-out: CFU IC50.

Where two headings read alike, the source gives them in different places. Where only a bound is given, the exact number is not on record here.

One may read the IC50 as the point on the concentration scale where inhibition reaches its midpoint. Take “5-(3-aminopropylamino)-7-benzylamino-3-isopropylpyrazolo[4,3-d]pyrimidine [Compound 17]”: the IC50 worked out at 10 µM in test [1] and 17 µM in test [2] (setting [3]). Moreover, the “Colony output for CFU-E, CFU-G and CFU-M (output of the different types of myeloid colonies)” value in test [2] is given as “significantly lower colony output”.

For “5-(methylthio)-7-[N-(3,4-dihydroxybenzyl-N-methyl]amino-3 isopropylpyrazolo[4,3-d]pyrimidine [Compound 26]”, the “Colony output vs. control cultures” value in the test on KG1 amounted to 16%. Further, the “Activity on pre-CFU compared with CFU” value in test [1] is reported as “more active on pre-CFU than on CFU”. Moreover, the IC50 in test [1] is 86 µM; in test [2] (setting [3]), greater than 50 µM. In addition, the “Colony output for CFU-E, CFU-G and CFU-M (output of the different types of myeloid colonies)” value in test [2] is “no significant difference”.

For the compound “5-(3-hydroxypropylamino)-7-[(R,S)-(1-phenyl-2-hydroxyethyl)amino-3-isopropylpyrazolo[4,3-d]pyrimidine [Compound 172]”, the values for the IC50 in test [1] and in test [2] (setting [3]) were greater than 25 µM and greater than 20 µM, respectively. The “Colony output for CFU-E, CFU-G and CFU-M (output of the different types of myeloid colonies)” value in test [2] is on record as “significantly lower colony output”.

With `CCCCCCNc1nc(NC(CO)c2ccccc2)c2[nH]nc(C(C)C)c2n1` (stereo not shown) [Compound 98, 5-(hexylamino)-7-(1-phenyl-2-hydroxyethylamino)-3-isopropylpyrazolo[4,3-d]pyrimidine], the “Colony output vs. control cultures” value in the test on KG1 was 19%. Moreover, the IC50 in test [1] (Homo sapiens, 336 h) is greater than 25 µM; in test [2] (Homo sapiens, 336 h, methylcellulose, read-out: IC50 on CD34+CD38+ hematopoietic progenitors), greater than 50 µM; in test [2] (Homo sapiens, 336 h, total colony output, read-out: CFU IC50), 5.4 ± 0.4 µM.

Consider “5-(3-aminoethylamino)-7-(3,4-dihydroxybenzyl)amino-3-isopropylpyrazolo[4,3-d]pyrimidine [Compound 201]”, for which the “Colony output vs. control cultures” value with KG1 came to 0%. The IC50 in test [1] stood at 1.5 µM; in test [2] (setting [3]), 4.5 µM. In addition, the “Colony output for CFU-E, CFU-G and CFU-M (output of the different types of myeloid colonies)” value in test [2] is “significantly lower colony output”.
